Test results taken from ChEMBL document CHEMBL1151013, “The chemical evolution of N,N-dimethyl-2-[5-(1,2,4-triazol-4-yl)-1H-indol-3-yl]ethylamine (L-741,604) and analogues: Potent and selective agonists for 5-HT1D receptors” (Bioorg Med Chem Lett, 1996).

Key:
Rattus norvegicus [1] = species: Rattus norvegicus; experiment: Maximum fall in carotid flow in rat; format: organism-based; conditions: in vivo
[2] = Maximum concentration in rat plasma was determined; format: ADME, organism-based
[3] = Time required to reach maximum concentration in rat plasma; format: ADME, organism-based
[4] = Plasma clearance in rat was determined; format: ADME, organism-based; conditions: read-out: Clp
Canis familiaris = species: Canis familiaris; experiment: The plasma concentration producing half maximal fall in carotid flow in dogs; format: functional, organism-based; conditions: Canis lupus familiaris
[5] = Half-life in rat plasma was determined; format: ADME, organism-based
Oryctolagus cuniculus = species: Oryctolagus cuniculus; experiment: Compound was tested for agonist potency from plots of percentage 5-HT (1 uM) response against concentration of the agonist in white rabbit saphenous vein; format: functional, organism-based
Rattus norvegicus [6] = species: Rattus norvegicus; experiment: Inhibition of extravation produced in the dura meter by electrical stimulatio of trigeminal ganglion in rat; format: functional, organism-based

Compound | Carotid Flow Decrease (Rattus norvegicus [1]) | Cmax [2] | Tmax [3] | clearance [4] | IC50 (Canis familiaris) | half-life [5] | EC50 (Oryctolagus cuniculus) | IC50 (Rattus norvegicus [6])
CNS(=O)(=O)Cc1ccc2[nH]cc(CCN(C)C)c2c1 | 44% | 74 ng/mL | 4 h | 69 mL/min/kg | 48.6 nM | 1.1 h | – | –
CN(C)CCc1c[nH]c2ccc(-n3cnnc3)cc12 | 27% | 83 ng/mL | 1 h | 37 mL/min/kg | – | 1.3 h | 32 nM | 13 nM
CN1CCC(c2c[nH]c3ccc(-n4cnnc4)cc23)CC1 | 20% | 53 ng/mL | 3 h | 48 mL/min/kg | 6.9 nM | 2 h | 39 nM | 69 nM
CN(C)CCc1c[nH]c2ccc(-n3cncn3)cc12 | – | – | – | – | – | – | 62 nM | –
CN(C)CCc1c[nH]c2ccc(Cn3cncn3)cc12 [RIZATRIPTAN] | 76% | 271 ng/mL | 0.75 h | 79 mL/min/kg | – | 0.8 h | – | –
